From ChEMBL document CHEMBL2440042, “Anti-proliferative activity of hydnocarpin, a natural lignan, is associated with the suppression of Wnt/β-catenin signaling pathway in colon cancer cells” (Bioorg Med Chem Lett, 2013)

System: SW480
Assay: Inhibition of Wnt/beta-catenin signaling pathway in human SW480 cells assessed as increase in phosphorylation of beta-catenin at Ser45 at 5 uM after 12 hrs by Western blotting analysis relative to vehicle-treated control

For COc1cc([C@H]2Oc3ccc(-c4cc(=O)c5c(O)cc(O)cc5o4)cc3O[C@@H]2CO)ccc1O (relative stereo), the “fold change (FC)” value was 3.
